# Experimental data taken from patent US20250241893A1, “TREATMENT OF COGNITIVE DYSFUNCTION” (GH RESEARCH IRELAND LIMITED, priority 2022, published 2025).
# Tested on: patients with treatment-resistant major depressive disorder (TRD)
# Test: Phase 1/2 clinical trial of inhaled 5-MeO-DMT in TRD
# Details: for Patients with at least one ADR: Part A, n=4, all mild, resolved spontaneously
# Description: Patients were assigned to different groups. In the context of the present invention, the group who received a single, 12 mg dose and the group who underwent an intra-day individualized dosing regimen (IDR) that allowed for multiple, escalating doses (6 mg, 12 mg and 18 mg) within a single day, driven by the intensity of the patient-reported psychedelic experience are of interest.
# The data gathered include the assessment of the treated patients against several scales including the Montgomery-Asberg Depression Rating Scale (MADRS) and the Brief Psychiatric Rating Scale (BPRS).
# The MADRS item that is of particular relevance to impaired concentration and memory is “concentration difficulties”. This item represents difficulties in collecting one's thoughts mounting to incapacitating lack of concentration and is scored on a scale ranging from 0 to 6. The score is 0 if the patient has no difficulties in concentrating. The score is 2 in case of occasional difficulties in collecting one's thoughts. A score of 4 is assigned in case of difficulties in concentrating and sustaining thought which reduces ability to read or hold a conversation. The score is 6 if the patient is unable to read or converse without great difficulty.
# The MADRS item “reduced sleep” represents the experience of reduced duration or depth of sleep compared to the subject's own normal pattern when well. A score of 0 is assigned when the subject sleeps as usual. […] A score of 4 means that sleep is reduced or broken by at least two hours. A score of 6 means less than two or three hours sleep.
# This trial was designed in two parts. Part A was an open-label, single-arm, single-dose Phase 1 trial with two dose levels (12 mg (n=4) and 18 mg (n=4)). […] The primary endpoint of Part B was to assess the effects on the severity of depression, as assessed by the proportion of patients in remission on day seven after dosing, defined as a MADRS total score of less than or equal to 10.
# [1] = 12 mg n=4, sum of patient scores, 2 hours after dose, baseline 16
# [2] = 12 mg n=4, sum of patient scores, day 1, baseline 13
# [3] = 12 mg n=4, sum of patient scores, day 1, baseline 16
# [4] = 12 mg n=4, sum of patient scores, day 7, baseline 12
# [5] = 12 mg n=4, sum of patient scores, day 7, baseline 13
# [6] = 12 mg n=4, sum of patient scores, day 7, baseline 16
# [7] = IDR n=8, sum of patient scores, day 1, baseline 25
# [8] = IDR n=8, sum of patient scores, day 7, baseline 25
# [9] = IDR n=8, sum of patient scores, day 7, baseline 30
smiles,measurement,setting,value
COc1ccc2[nH]cc(CCN(C)C)c2c1 [5-MeO-DMT],MADRS Suicidal Thoughts improvement,"12 mg n=4, sum of patient scores, 2 hours after dose, baseline 8",5
same,MADRS Inner Tension improvement,"12 mg n=4, sum of patient scores, 2 hours after dose, baseline 13",11
same,MADRS Concentration Difficulties improvement,[1],9
same,MADRS Inability to Feel improvement,[1],7
same,MADRS Lassitude improvement,[1],6
same,MADRS Pessimistic Thoughts improvement,[1],8
same,BPRS Blunted Affect improvement,"12 mg n=4, sum of patient scores, 3 hours after dose, baseline 11",3
same,BPRS Emotional Withdrawal improvement,"12 mg n=4, sum of patient scores, 3 hours after dose, baseline 13",2
same,BPRS Tension improvement,"12 mg n=4, sum of patient scores, 3 hours after dose, baseline 14",5
same,BPRS Guilt Feelings improvement,"12 mg n=4, sum of patient scores, 3 hours after dose, baseline 18",9
same,BPRS Anxiety improvement,"12 mg n=4, sum of patient scores, 3 hours after dose, baseline 25",14
same,MADRS Suicidal Thoughts improvement,"12 mg n=4, sum of patient scores, day 1, baseline 8",3
same,BPRS Blunted Affect improvement,"12 mg n=4, sum of patient scores, day 1, baseline 11",5
same,MADRS Reduced Sleep improvement,"12 mg n=4, sum of patient scores, day 1, baseline 12",2
same,BPRS Emotional Withdrawal improvement,[2],5
same,MADRS Inner Tension improvement,[2],10
same,BPRS Tension improvement,"12 mg n=4, sum of patient scores, day 1, baseline 14",8
same,MADRS Concentration Difficulties improvement,[3],14
same,MADRS Inability to Feel improvement,[3],15
same,MADRS Lassitude improvement,[3],16
same,MADRS Pessimistic Thoughts improvement,[3],9
same,BPRS Guilt Feelings improvement,"12 mg n=4, sum of patient scores, day 1, baseline 18",13
same,BPRS Anxiety improvement,"12 mg n=4, sum of patient scores, day 1, baseline 25",19
same,MADRS Suicidal Thoughts improvement,"12 mg n=4, sum of patient scores, day 7, baseline 8",1
same,BPRS Blunted Affect improvement,"12 mg n=4, sum of patient scores, day 7, baseline 11",6
same,MADRS Reduced Sleep improvement,[4],6
same,MADRS Reduced Sleep percentage improvement,[4],50.00%
same,BPRS Emotional Withdrawal improvement,[5],7
same,MADRS Inner Tension improvement,[5],8
same,BPRS Tension improvement,"12 mg n=4, sum of patient scores, day 7, baseline 14",8
same,MADRS Concentration Difficulties improvement,[6],13
same,MADRS Inability to Feel improvement,[6],15
same,MADRS Lassitude improvement,[6],13
same,MADRS Pessimistic Thoughts improvement,[6],8
same,BPRS Guilt Feelings improvement,"12 mg n=4, sum of patient scores, day 7, baseline 18",13
same,BPRS Anxiety improvement,"12 mg n=4, sum of patient scores, day 7, baseline 25",19
same,MADRS Suicidal Thoughts improvement,"IDR n=8, sum of patient scores, 2 hours after last dose, baseline 11",8
same,MADRS Inner Tension improvement,"IDR n=8, sum of patient scores, 2 hours after last dose, baseline 26",15
same,MADRS Lassitude improvement,"IDR n=8, sum of patient scores, 2 hours after last dose, baseline 27",17
same,MADRS Pessimistic Thoughts improvement,"IDR n=8, sum of patient scores, 2 hours after last dose, baseline 28",21
same,MADRS Concentration Difficulties improvement,"IDR n=8, sum of patient scores, 2 hours after last dose, baseline 30",19
same,MADRS Inability to Feel improvement,"IDR n=8, sum of patient scores, 2 hours after last dose, baseline 36",24
same,BPRS Emotional Withdrawal improvement,"IDR n=8, sum of patient scores, 3 hours after last dose, baseline 13",5
same,BPRS Blunted Affect improvement,"IDR n=8, sum of patient scores, 3 hours after last dose, baseline 15",4
same,BPRS Tension improvement,"IDR n=8, sum of patient scores, 3 hours after last dose, baseline 16",5
same,BPRS Guilt Feelings improvement,"IDR n=8, sum of patient scores, 3 hours after last dose, baseline 34",20
same,BPRS Anxiety improvement,"IDR n=8, sum of patient scores, 3 hours after last dose, baseline 37",18
same,MADRS Suicidal Thoughts improvement,"IDR n=8, sum of patient scores, day 1, baseline 11",10
same,BPRS Emotional Withdrawal improvement,"IDR n=8, sum of patient scores, day 1, baseline 13",5
same,BPRS Blunted Affect improvement,"IDR n=8, sum of patient scores, day 1, baseline 15",7
same,BPRS Tension improvement,"IDR n=8, sum of patient scores, day 1, baseline 16",5
same,MADRS Reduced Sleep improvement,[7],13
same,MADRS Reduced Sleep percentage improvement,[7],52.00%
same,MADRS Inner Tension improvement,"IDR n=8, sum of patient scores, day 1, baseline 26",20
same,MADRS Lassitude improvement,"IDR n=8, sum of patient scores, day 1, baseline 27",22
same,MADRS Pessimistic Thoughts improvement,"IDR n=8, sum of patient scores, day 1, baseline 28",24
same,MADRS Concentration Difficulties improvement,"IDR n=8, sum of patient scores, day 1, baseline 30",29
same,BPRS Guilt Feelings improvement,"IDR n=8, sum of patient scores, day 1, baseline 34",23
same,MADRS Inability to Feel improvement,"IDR n=8, sum of patient scores, day 1, baseline 36",34
same,BPRS Anxiety improvement,"IDR n=8, sum of patient scores, day 1, baseline 37",21
same,MADRS Suicidal Thoughts improvement,"IDR n=8, sum of patient scores, day 7, baseline 11",8
same,BPRS Emotional Withdrawal improvement,"IDR n=8, sum of patient scores, day 7, baseline 13",5
same,BPRS Blunted Affect improvement,"IDR n=8, sum of patient scores, day 7, baseline 15",7
same,BPRS Tension improvement,"IDR n=8, sum of patient scores, day 7, baseline 16",6
same,MADRS Reduced Sleep improvement,[8],16
same,MADRS Reduced Sleep percentage improvement,[8],64.00%
same,MADRS Inner Tension improvement,"IDR n=8, sum of patient scores, day 7, baseline 26",14
same,MADRS Lassitude improvement,"IDR n=8, sum of patient scores, day 7, baseline 27",24
same,MADRS Pessimistic Thoughts improvement,"IDR n=8, sum of patient scores, day 7, baseline 28",25
same,MADRS Concentration Difficulties improvement,[9],21
same,MADRS Concentration Difficulties percentage improvement,[9],70.00%
same,BPRS Guilt Feelings improvement,"IDR n=8, sum of patient scores, day 7, baseline 34",24
same,MADRS Inability to Feel improvement,"IDR n=8, sum of patient scores, day 7, baseline 36",30
same,BPRS Anxiety improvement,"IDR n=8, sum of patient scores, day 7, baseline 37",20
same,SAEs,Part A (12 mg and 18 mg),No SAEs were reported
same,Patients with at least one ADR,12 mg single dose,3 of 4
same,Patients with at least one ADR,18 mg single dose,3 of 4
